{"source": "paper PMC6269819", "about": "“Evaluation of the Biological Activity of Naturally Occurring 5,8-Dihydroxycoumarin” (Molecules, 2013)", "key": {"[1]": {"assay": "Rapeseed oil oxidation in Oxipress apparatus", "settings": "for protection factor of rapeseed oil: 120 °C, oxygen 5 bars", "procedure": "The samples were prepared by mixing rapeseed oil with 0.025, 0.05 and 0.1% of DHC. Five g of oil were placed in a reactor tube and thermostated at 120 °C under oxygen atmosphere (5 bars) in Oxipress apparatus (Mikrolab, Aarhus). Pressure changes which occur due to the absorption of oxygen consumed for oil oxidation were recorded. The protection factor (PF) values of rapeseed oil in case of using 5,8-DHC were calculated by the following formula: PF = IPX/IPK(3) where IPX is induction period of sample with additive (h); IPK is induction period of sample without additive (h)."}, "[2]": {"assay": "Signs of systemic toxicity and mortality in treated rats"}, "[3]": {"system": "Wistar rat bone marrow cells", "assay": "Chromosome aberration in vivo assay in rat bone marrow", "from_the_text": "Male albino Wistar rats aged 8–10 weeks and having body weight of 200–220 g, were used in the present study. The animals were supplied by the Animal Facility of the Department of Immunology, State Research Institute Center for Innovative Medicine. Ethical approval was given by the Committee of the Lithuanian Animal Care and Use. Prior to the start of the study, the animals were acclimatized for 7 days. They were housed under conditions of constant temperature, humidity and a light/dark cycle of 12 h/12 h with free access to standard commercial pellet diet and drinking water. The animals were randomly distributed into 11 experimental groups of six rats each.\nWe used a mixture of dimethylsulfoxide (DMSO) and sunflower oil (1:2) as the vehicle for 5,8-DHC (5,8-DHC was dissolved in DMSO and adjusted to the desired dose with sunflower oil immediately before administration). For the acute treatment, the animals received single intraperitoneal (i.p.) injections of 10 or 20 mg/kg of 5,8-DHC in 1 mL volume per 100 g body weight (b.w.). The negative control group comprised animals, given a single i.p. injection of vehicle (1 mL/100 g b.w.) and the positive control group, given cyclophosphamide (CP, 30 mg/kg adjusted in 0.5 mL/100 g b.w. in sterile physiological saline). A commercial form of cyclophosphamide was used (‘Endoxan’, ASTA Medica AG, Frankfurt, Germany). Blank controls comprised untreated animals. For the repeated treatment, 5,8-DHC (10 or 20 mg/kg) or vehicle was administered via gavage (1 mL/100 g b.w.) once a day for 3 consecutive days. Animals were sacrificed 24 h or 48 h after the last dose administration. Colchicine was applied i.p. at a dose of 2 mg/kg b.w. in 1 mL volume 90 min before sacrifice. Both femurs were dissected from each animal and used to obtain bone marrow preparations for the analysis of chromosome aberrations and micronucleus.\nBone marrow cells were flushed from the femora with 0.55% potassium chloride hypotonic solution, incubated for 25 min at 37 °C and then centrifuged at 150 × g for 8 min. Cells were fixed in methanol-glacial acetic acid (3:1). Slides were prepared by a flame-drying procedure and then stained with 5% Giemsa stain. Slides were coded and scored blind by the single scorer at a magnification of 1500× (Nikon ECLIPSE E200, Tokyo, Japan). Only well-spread metaphases with 42 ± 1 chromosomes were used for the analysis. The frequencies of CAs were estimated in 100 metaphases per animal. Aberrations were recorded as individual types according to J.R. Savage’s classification but for convenience were grouped as chromatid breaks (ctb), chromatid exchanges (cte), chromosome breaks (csb) and chromosome exchanges (cse). Gaps were counted but not included into statistical analysis."}}}
{"smiles": "O=c1ccc2c(O)ccc(O)c2o1", "note": "[5,8-DHC, 5,8-Dihydroxycoumarin]", "values": [{"measurement": "rapeseed oil autooxidation induction period (IP)", "setting": "[1]; 0.025 % 5,8-DHC", "value": 3.81, "unit": "h"}, {"measurement": "protection factor of rapeseed oil", "setting": "[1]; 0.025% 5,8-DHC", "value": 1.69}, {"measurement": "rapeseed oil autooxidation induction period (IP)", "setting": "[1]; 0.050 % 5,8-DHC", "value": 5.46, "unit": "h"}, {"measurement": "protection factor of rapeseed oil", "setting": "[1]; 0.05% 5,8-DHC", "value": 2.43}, {"measurement": "rapeseed oil autooxidation induction period (IP)", "setting": "[1]; 0.100 % 5,8-DHC", "value": 8.46, "unit": "h"}, {"measurement": "signs of systemic toxicity", "setting": "[2]; 20 mg/kg b.w., at 2–3 h after dose administration", "value": "sluggishness was observed in all rats"}, {"measurement": "time to death after administration", "setting": "[2]; i.p. injection 100 mg/kg", "value": "3 to 4", "unit": "h"}, {"measurement": "toxicity and mortality", "setting": "[2]; i.p. injection 100 mg/kg", "value": "sluggishness and death of all treated animals"}, {"measurement": "signs of systemic toxicity", "setting": "[2]; repeated treatment with 10 mg/kg b.w., since second dose administration", "value": "sluggishness"}, {"measurement": "increase of CAs compared with vehicle controls", "setting": "[3]; all 5,8-DHC treated animals", "value": "No increase of CAs"}, {"measurement": "Aberrant metaphases (%± S.E.M.)", "setting": "[3]; repeated gavage 3 × 10 mg/kg b.w., sacrifice 48 h", "value": "1.17 ± 0.17", "unit": "%"}, {"measurement": "Aberrant metaphases (%± S.E.M.)", "setting": "[3]; repeated gavage 3 × 20 mg/kg b.w., sacrifice 48 h", "value": "2.43 ± 0.37", "unit": "%"}, {"measurement": "Aberrant metaphases (%± S.E.M.)", "setting": "[3]; single i.p. 10 mg/kg b.w., sacrifice 24 h", "value": "2.33 ± 0.49", "unit": "%"}, {"measurement": "Aberrant metaphases (%± S.E.M.)", "setting": "[3]; single i.p. 10 mg/kg b.w., sacrifice 48 h", "value": "1.67 ± 0.56", "unit": "%"}, {"measurement": "Aberrant metaphases (%± S.E.M.)", "setting": "[3]; single i.p. 20 mg/kg b.w., sacrifice 24 h", "value": "1.00 ± 0.36", "unit": "%"}, {"measurement": "Aberrant metaphases (%± S.E.M.)", "setting": "[3]; single i.p. 20 mg/kg b.w., sacrifice 48 h", "value": "2.60 ± 0.68", "unit": "%"}]}
